{
  "source": "ChEMBL document CHEMBL4311992",
  "about": "“Discovery of 3-(((9H-purin-6-yl)amino)methyl)-4,6-dimethylpyridin-2(1H)-one derivatives as novel tubulin polymerization inhibitors for treatment of cancer” (Eur J Med Chem, 2019)",
  "key": {"[1]": {"test_system": "Angiopoietin-1 receptor (Homo sapiens), Q02763 [Q939H,Q940H,R849W]", "sequence (Q02763 whole entry R849W/Q939H/Q940H)": "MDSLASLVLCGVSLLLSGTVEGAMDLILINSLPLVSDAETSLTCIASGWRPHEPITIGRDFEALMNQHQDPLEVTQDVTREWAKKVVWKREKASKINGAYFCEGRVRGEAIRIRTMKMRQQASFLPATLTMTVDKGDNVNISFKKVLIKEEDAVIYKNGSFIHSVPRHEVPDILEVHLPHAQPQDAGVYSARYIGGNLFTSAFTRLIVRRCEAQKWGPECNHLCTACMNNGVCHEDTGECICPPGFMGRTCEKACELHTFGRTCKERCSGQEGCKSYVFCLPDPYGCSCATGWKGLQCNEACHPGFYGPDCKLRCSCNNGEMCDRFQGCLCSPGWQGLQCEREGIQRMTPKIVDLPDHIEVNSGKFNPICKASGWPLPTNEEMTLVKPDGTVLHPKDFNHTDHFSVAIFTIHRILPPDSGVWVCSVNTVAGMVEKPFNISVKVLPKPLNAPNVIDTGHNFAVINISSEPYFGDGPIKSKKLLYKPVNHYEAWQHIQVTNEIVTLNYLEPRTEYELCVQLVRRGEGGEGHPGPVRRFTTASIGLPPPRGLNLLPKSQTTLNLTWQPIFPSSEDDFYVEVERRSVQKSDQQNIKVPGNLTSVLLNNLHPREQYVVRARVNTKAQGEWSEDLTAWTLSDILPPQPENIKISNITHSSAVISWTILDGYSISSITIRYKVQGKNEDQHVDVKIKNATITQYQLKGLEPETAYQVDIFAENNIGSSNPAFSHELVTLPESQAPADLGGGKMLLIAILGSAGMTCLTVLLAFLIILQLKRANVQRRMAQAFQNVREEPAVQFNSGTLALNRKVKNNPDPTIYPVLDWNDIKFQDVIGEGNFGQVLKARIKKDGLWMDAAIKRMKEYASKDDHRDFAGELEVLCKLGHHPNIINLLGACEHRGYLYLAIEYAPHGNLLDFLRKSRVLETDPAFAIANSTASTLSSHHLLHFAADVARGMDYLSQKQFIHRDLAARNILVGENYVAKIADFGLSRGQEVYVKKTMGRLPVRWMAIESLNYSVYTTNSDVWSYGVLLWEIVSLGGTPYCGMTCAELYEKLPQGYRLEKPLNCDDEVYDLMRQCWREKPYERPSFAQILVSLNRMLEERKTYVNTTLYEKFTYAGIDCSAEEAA", "assay": "Inhibition of human Tie2 Q939H/Q940H/R849W mutant (771 to end residues) using EFPIYDFLPAKKK as substrate measured after 40 mins in presence of [gamma33P]ATP by scintillation counting method", "parameters": "scale not given: the % may be the effect or the level left"}, "[2]": {"test_system": "Angiopoietin-1 receptor (Homo sapiens), Q02763 [Q939H,Q940H]", "sequence (Q02763 whole entry Q939H/Q940H)": "as the sequence (Q02763 whole entry R849W/Q939H/Q940H) above, with W849R counted along it", "assay": "Inhibition of human Tie2 Q939H/Q940H mutant (771 to end residues) using poly(Glu, Tyr) 4:1 as substrate measured after 40 mins in presence of [gamma33P]ATP by scintillation counting method", "parameters": "scale not given: the % may be the effect or the level left"}, "[3]": {"test_system": "Serine/threonine-protein kinase Sgk1 (Homo sapiens), O00141 [S422D]", "sequence (O00141 whole entry S422D)": "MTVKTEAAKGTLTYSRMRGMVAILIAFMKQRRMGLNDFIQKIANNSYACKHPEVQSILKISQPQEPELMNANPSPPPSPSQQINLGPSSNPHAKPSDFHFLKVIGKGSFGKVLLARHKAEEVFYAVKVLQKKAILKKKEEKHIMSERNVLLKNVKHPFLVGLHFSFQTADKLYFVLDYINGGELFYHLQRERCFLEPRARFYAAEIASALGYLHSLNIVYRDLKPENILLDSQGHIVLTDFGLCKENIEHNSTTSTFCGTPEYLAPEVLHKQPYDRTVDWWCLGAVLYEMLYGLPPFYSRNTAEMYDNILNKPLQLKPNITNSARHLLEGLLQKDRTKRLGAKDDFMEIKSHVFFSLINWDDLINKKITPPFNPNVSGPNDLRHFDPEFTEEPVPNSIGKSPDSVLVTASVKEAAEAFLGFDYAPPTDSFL", "assay": "Inhibition of recombinant human SGK S422D mutant (60 to end residues) assessed as residual activity at 10 uM using GRPRTSSFAEGKK as substrate measured after 40 mins in presence of [gamma33P]ATP by scintillation counting method"}, "[4]": {"biological_target": "cGMP-dependent protein kinase 1 (Homo sapiens) (UniProt Q13976)", "assay": "Inhibition of recombinant full-length human PKG1beta assessed as residual activity at 10 uM using RRRLSFAEPG as substrate measured after 40 mins in presence of [gamma33P]ATP by scintillation counting method"}, "[5]": {"biological_target": "Serine/threonine-protein kinase PAK 4 (Homo sapiens) (UniProt O96013)", "assay": "Inhibition of recombinant human PAK4 (295 to end residues) assessed as residual activity at 10 uM using myelin basic protein as substrate measured after 40 mins in presence of [gamma33P]ATP by scintillation counting method"}, "[6]": {"biological_target": "FKBP12A/mTOR (Homo sapiens) (UniProt P62942+P42345)", "sequence (P62942 2-108 limits assumed, other chains not shown)": "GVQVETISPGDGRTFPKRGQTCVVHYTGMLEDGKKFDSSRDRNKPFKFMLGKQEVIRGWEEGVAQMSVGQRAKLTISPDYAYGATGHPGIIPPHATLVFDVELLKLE", "assay": "Inhibition of recombinant full-length human mTOR/FKBP12 assessed as residual activity at 10 uM measured after 40 mins in presence of [gamma33P]ATP by scintillation counting method", "type": "protein-complex assay"}, "[7]": {"biological_target": "Misshapen-like kinase 1 (Homo sapiens) (UniProt Q8N4C8)", "assay": "Inhibition of recombinant human MINK (1 to 310 residues) assessed as residual activity at 10 uM using myelin basic protein as substrate measured after 40 mins in presence of [gamma33P]ATP by scintillation counting method"}, "[8]": {"biological_target": "CDK17/Cyclin-Y (Homo sapiens) (UniProt Q00537+Q8ND76)", "sequence (Q00537 whole entry)": "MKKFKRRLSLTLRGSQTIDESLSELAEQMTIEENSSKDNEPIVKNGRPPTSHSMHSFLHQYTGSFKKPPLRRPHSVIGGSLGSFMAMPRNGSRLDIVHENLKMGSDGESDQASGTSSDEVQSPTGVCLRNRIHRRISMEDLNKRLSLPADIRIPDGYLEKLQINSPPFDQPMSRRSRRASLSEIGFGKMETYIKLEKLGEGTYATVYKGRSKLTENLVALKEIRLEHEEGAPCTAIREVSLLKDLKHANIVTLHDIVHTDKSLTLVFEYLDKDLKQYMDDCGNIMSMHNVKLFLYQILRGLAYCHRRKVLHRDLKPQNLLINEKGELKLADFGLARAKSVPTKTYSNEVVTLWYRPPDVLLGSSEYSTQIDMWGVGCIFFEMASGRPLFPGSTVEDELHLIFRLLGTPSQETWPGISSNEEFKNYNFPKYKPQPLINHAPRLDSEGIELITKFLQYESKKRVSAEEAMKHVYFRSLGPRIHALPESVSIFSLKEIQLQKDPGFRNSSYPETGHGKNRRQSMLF", "sequence (Q8ND76 2-341 partner limits assumed)": "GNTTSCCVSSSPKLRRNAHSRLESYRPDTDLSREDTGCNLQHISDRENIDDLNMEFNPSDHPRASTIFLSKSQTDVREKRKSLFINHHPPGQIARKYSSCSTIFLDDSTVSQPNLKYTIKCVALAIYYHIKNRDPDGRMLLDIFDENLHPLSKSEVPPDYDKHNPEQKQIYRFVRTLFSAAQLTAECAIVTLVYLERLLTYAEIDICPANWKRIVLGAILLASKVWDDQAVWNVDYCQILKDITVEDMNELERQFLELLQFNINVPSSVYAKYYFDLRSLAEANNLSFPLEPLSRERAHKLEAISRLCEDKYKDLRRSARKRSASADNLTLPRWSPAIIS", "assay": "Inhibition of human CDK17/cyclinY assessed as residual activity at 10 uM using PKSPKARKKL as substrate measured after 120 mins in presence of [gamma33P]ATP by scintillation counting method", "type": "protein-complex assay"}, "[9]": {"biological_target": "Serine/threonine-protein kinase Chk1 (Homo sapiens) (UniProt O14757)", "sequence (O14757 whole entry)": "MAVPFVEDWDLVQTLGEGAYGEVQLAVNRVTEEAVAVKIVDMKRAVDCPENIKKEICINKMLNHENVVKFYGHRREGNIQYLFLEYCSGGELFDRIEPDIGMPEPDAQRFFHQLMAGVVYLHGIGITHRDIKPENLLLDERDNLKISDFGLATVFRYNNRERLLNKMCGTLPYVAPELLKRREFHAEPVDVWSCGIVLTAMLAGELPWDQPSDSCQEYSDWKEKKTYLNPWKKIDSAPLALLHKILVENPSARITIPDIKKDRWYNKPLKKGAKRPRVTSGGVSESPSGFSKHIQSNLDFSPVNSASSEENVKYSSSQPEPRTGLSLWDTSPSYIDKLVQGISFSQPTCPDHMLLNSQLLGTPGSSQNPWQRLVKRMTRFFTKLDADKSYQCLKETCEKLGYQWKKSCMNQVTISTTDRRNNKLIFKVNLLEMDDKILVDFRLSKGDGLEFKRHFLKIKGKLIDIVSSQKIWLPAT", "assay": "Inhibition of recombinant full length human CHK1 assessed as residual activity at 10 uM using KKKVSRSGLYRSPSMPENLNRPR as substrate measured after 40 mins in presence of [gamma33P]ATP by scintillation counting method"}, "[10]": {"biological_target": "Testis-specific serine/threonine-protein kinase 3 (Homo sapiens) (UniProt Q96PN8)", "assay": "Inhibition of recombinant full-length human TSSK3 assessed as residual activity at 10 uM using AMARAASAAALARRR as substrate measured after 40 mins in presence of [gamma33P]ATP by scintillation counting method"}, "[11]": {"biological_target": "Proto-oncogene tyrosine-protein kinase Src (Homo sapiens) (UniProt P12931)", "sequence (P12931 2-536 limits assumed)": "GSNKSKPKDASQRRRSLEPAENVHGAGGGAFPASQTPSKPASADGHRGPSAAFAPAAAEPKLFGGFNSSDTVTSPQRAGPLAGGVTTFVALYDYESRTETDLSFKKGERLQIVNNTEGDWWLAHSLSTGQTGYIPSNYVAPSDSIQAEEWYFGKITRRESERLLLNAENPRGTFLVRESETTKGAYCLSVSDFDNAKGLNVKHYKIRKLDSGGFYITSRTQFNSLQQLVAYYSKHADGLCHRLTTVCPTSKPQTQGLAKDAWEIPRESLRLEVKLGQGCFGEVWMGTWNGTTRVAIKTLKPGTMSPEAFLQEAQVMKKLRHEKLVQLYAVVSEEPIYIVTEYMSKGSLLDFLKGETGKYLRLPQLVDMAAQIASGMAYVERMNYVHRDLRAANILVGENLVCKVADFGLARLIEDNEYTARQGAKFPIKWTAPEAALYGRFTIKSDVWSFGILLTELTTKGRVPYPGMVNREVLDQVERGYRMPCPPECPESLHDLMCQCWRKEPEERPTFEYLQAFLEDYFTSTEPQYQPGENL", "assay": "Inhibition of recombinant full-length human SRC assessed as residual activity at 10 uM using Cdc2 peptide as substrate measured after 40 mins in presence of [gamma33P]ATP by scintillation counting method"}, "[12]": {"test_system": "Tyrosine-protein kinase ABL1 (Homo sapiens), P00519 [Y253F]", "assay": "Inhibition of recombinant human ABL Y253F mutant (27 to end residues) assessed as residual activity at 10 uM using EAIYAAPFAKKK as substrate measured after 40 mins in presence of [gamma33P]ATP by scintillation counting method"}, "[13]": {"biological_target": "Calcium/calmodulin-dependent protein kinase type II subunit delta (Homo sapiens) (UniProt Q13557)", "assay": "Inhibition of recombinant full-length human CaMK2delta assessed as residual activity at 10 uM using calmodulin as substrate measured after 40 mins in presence of [gamma33P]ATP by scintillation counting method"}, "[14]": {"biological_target": "Cyclin-dependent kinase 1/cyclin B1 (Homo sapiens) (UniProt P06493+P14635)", "assay": "Inhibition of recombinant full-length human CDK1/cyclinB assessed as residual activity at 10 uM using histone H1 as substrate measured after 40 mins in presence of [gamma33P]ATP by scintillation counting method", "type": "protein-complex assay"}, "[15]": {"biological_target": "CDK4/Cyclin D3 (Homo sapiens) (UniProt P11802+P30281)", "assay": "Inhibition of recombinant full-length human CDK4/cyclinD3 assessed as residual activity at 10 uM using Rb fragment as substrate measured after 40 mins in presence of [gamma33P]ATP by scintillation counting method", "type": "protein-complex assay"}, "HCT-116": {"test_system": "HCT-116", "assay": "Cell cycle arrest in human HCT116 cells assessed as up regulation of CyclinB1 expression up to 150 nM after 24 hrs by Western blot analysis", "type": "functional, cell-based"}, "SW-620": {"test_system": "SW-620", "assay": "Induction of apoptosis in human SW620 cells assessed as increase in cleaved caspase9 expression measured after 48 hrs by Western blot analysis", "type": "functional, cell-based"}, "[16]": {"assay": "Toxicity in nude BALB/c mouse xenografted with human HCT116 cells assessed as change in body weight at 80 mg/kg, po administered once daily for 4 weeks measured every 3 days during compound dosing", "type": "organism-based", "conditions": "in vivo"}, "[17]": {"biological_target": "LIM domain kinase 2 (Homo sapiens) (UniProt P53671)", "assay": "Inhibition of recombinant human LIMK2 assessed as residual activity at 10 uM by radiometric method"}, "[18]": {"biological_target": "3-phosphoinositide-dependent protein kinase 1 (Homo sapiens) (UniProt O15530)", "sequence (O15530 whole entry)": "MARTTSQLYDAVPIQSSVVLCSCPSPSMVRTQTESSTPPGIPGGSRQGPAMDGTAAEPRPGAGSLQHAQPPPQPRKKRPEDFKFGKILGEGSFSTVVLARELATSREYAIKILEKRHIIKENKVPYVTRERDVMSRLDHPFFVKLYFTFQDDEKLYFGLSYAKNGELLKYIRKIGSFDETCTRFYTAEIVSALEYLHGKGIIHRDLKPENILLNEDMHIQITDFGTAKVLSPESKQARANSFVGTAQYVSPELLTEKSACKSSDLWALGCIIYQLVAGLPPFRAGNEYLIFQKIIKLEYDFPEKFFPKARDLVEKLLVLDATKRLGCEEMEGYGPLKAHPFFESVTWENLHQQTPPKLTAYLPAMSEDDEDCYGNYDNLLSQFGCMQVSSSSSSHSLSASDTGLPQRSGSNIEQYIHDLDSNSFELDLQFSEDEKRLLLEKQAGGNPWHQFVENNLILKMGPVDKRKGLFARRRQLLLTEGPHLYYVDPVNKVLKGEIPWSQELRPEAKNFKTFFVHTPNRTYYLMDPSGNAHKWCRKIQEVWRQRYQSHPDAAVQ", "assay": "Inhibition of recombinant human PDK1 (52 to end residues) assessed as residual activity at 10 uM using PDKtide as substrate measured after 40 mins in presence of [gamma33P]ATP by scintillation counting method"}, "[19]": {"biological_target": "cAMP-dependent protein kinase catalytic subunit PRKX (Homo sapiens) (UniProt P51817)", "sequence (P51817 whole entry)": "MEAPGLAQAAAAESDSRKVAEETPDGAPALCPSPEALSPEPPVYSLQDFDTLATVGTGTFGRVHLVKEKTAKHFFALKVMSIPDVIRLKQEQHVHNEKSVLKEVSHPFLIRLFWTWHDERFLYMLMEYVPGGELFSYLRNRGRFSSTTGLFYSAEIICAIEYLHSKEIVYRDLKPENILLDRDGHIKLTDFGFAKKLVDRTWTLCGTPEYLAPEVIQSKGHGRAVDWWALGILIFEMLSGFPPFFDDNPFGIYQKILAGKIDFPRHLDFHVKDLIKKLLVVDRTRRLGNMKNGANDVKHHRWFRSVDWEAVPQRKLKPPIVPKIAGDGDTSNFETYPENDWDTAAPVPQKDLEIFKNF", "assay": "Inhibition of recombinant full-length human PrKX assessed as residual activity at 10 uM using RRRLSFAEPG as substrate measured after 40 mins in presence of [gamma33P]ATP by scintillation counting method"}, "[20]": {"biological_target": "Serine/threonine-protein kinase 32B (Homo sapiens) (UniProt Q9NY57)", "sequence (Q9NY57 whole entry)": "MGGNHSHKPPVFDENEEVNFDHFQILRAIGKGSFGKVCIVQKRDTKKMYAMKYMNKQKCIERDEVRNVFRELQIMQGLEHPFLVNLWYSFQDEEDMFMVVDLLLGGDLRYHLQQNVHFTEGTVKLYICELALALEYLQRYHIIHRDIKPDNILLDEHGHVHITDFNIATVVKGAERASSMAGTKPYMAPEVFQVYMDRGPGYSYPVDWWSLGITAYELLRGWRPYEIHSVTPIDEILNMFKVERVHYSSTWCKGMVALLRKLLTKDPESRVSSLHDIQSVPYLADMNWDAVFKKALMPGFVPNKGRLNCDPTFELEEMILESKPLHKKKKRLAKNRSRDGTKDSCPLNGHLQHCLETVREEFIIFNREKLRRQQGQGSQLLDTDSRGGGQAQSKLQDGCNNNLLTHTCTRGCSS", "assay": "Inhibition of recombinant full-length human STK32B assessed as residual activity at 10 uM using casein as substrate measured after 120 mins in presence of [gamma33P]ATP by scintillation counting method"}, "[21]": {"test_system": "PI3-kinase p110-alpha/p85-alpha (Homo sapiens), P27986+P42336 [E545K]", "assay": "Inhibition of recombinant full-length human PI3K p110alpha/p85alpha E545K mutant assessed as residual activity at 10 uM using phosphatidylinositol-4, 5-bisphosphate as substrate measured after 40 mins by fluorescence assay", "type": "protein-complex assay"}, "[22]": {"assay": "Toxicity in nude BALB/c mouse assessed as change in ALT level at 40 to 80 mg/kg, po once daily for 4 weeks measured post-last dose", "type": "organism-based", "conditions": "in vivo, 672 h"}, "[23]": {"assay": "Toxicity in nude BALB/c mouse assessed as change in globulin level at 40 to 80 mg/kg, po once daily for 4 weeks measured post-last dose", "type": "organism-based", "conditions": "in vivo, 672 h"}},
  "note": "Activity calls are given as the source filed them. The calls are words filed in the database; no cut-off is given here.",
  "data": [
    {"smiles": "Cc1cc(C)c(CNc2nc(Cl)nc3c2ncn3C2CCCC2)c(=O)[nH]1", "values": [
      {"measurement": "Activity", "setting": "[1]", "value": 102, "unit": "%"},
      {"measurement": "Activity", "setting": "[2]", "value": 75.5, "unit": "%"},
      {"measurement": "Activity", "setting": "[3]", "value": 136, "unit": "%"},
      {"measurement": "Activity", "setting": "[4]", "value": 112, "unit": "%"},
      {"measurement": "Activity", "setting": "[5]", "value": 106, "unit": "%"},
      {"measurement": "Activity", "setting": "[6]", "value": 96.5, "unit": "%"},
      {"measurement": "Activity", "setting": "[7]", "value": 94, "unit": "%"},
      {"measurement": "Activity", "setting": "[8]", "value": 102, "unit": "%"},
      {"measurement": "Activity", "setting": "[9]", "value": 106, "unit": "%"},
      {"measurement": "Activity", "setting": "[10]", "value": 124, "unit": "%"},
      {"measurement": "Activity", "setting": "[11]", "value": 130, "unit": "%"},
      {"measurement": "Activity", "setting": "[12]", "value": 109, "unit": "%"},
      {"measurement": "Activity", "setting": "[13]", "value": 120, "unit": "%"},
      {"measurement": "Activity", "setting": "[14]", "value": 102, "unit": "%"},
      {"measurement": "Activity", "setting": "[15]", "value": 91, "unit": "%"},
      {"measurement": "Activity", "setting": "HCT-116", "value": "Active"},
      {"measurement": "Activity", "setting": "SW-620", "value": "Dose-dependent effect"},
      {"measurement": "Activity", "setting": "[16]", "value": "Non-Toxic"},
      {"measurement": "Activity", "setting": "[17]", "value": 106, "unit": "%"},
      {"measurement": "Activity", "setting": "[18]", "value": 91, "unit": "%"},
      {"measurement": "Activity", "setting": "[19]", "value": 113, "unit": "%"},
      {"measurement": "Activity", "setting": "[20]", "value": 98, "unit": "%"},
      {"measurement": "Activity", "setting": "[21]", "value": 93.5, "unit": "%"},
      {"measurement": "Activity", "setting": "[22]", "value": "Non-Toxic"},
      {"measurement": "Activity", "setting": "[23]", "value": "Non-Toxic"}
    ]}
  ]
}
